Source: the supplement of paper PMC10307832

Experiments:
Experiment in all cases: relative viability (nuclei count vs DMSO), 5 days (fraction); higher = more cells survive
Axitinib + Alpelisib = compound: CNC(=O)c1ccccc1Sc1ccc2c(/C=C/c3ccccn3)n[nH]c2c1 [Axitinib] + Cc1nc(NC(=O)N2CCC[C@H]2C(N)=O)sc1-c1ccnc(C(C)(C)C(F)(F)F)c1 [Alpelisib] (partner 2 µM)
Outline: (§1)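 Lung cancer cell lines in 1536-well plates were dosed by pin tool the day after seeding, either with one drug alone or with a fixed anchor-drug dose plus five library-drug doses (not always all listed) in √10 steps. After 5 days, cells were fixed and their nuclei stained in one step (final 0.05% Triton X-100, 1% formaldehyde, 1 ug/ml Hoechst), then counted on 4× images. Relative viability is the nuclei count in treated wells divided by that in vehicle wells. Values are medians of duplicate plates.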

[1] = compound: CC1=CC=C(C=C1)C(=O)CN2C3=C(CCCC3)SC2=N [Pifithrin_alpha] + Cc1nc(NC(=O)N2CCC[C@H]2C(N)=O)sc1-c1ccnc(C(C)(C)C(F)(F)F)c1 [Alpelisib] (partner 2 µM)
Outline: as §1

Axitinib + Crizotinib = compound: CNC(=O)c1ccccc1Sc1ccc2c(/C=C/c3ccccn3)n[nH]c2c1 [Axitinib] + C[C@@H](Oc1cc(-c2cnn(C3CCNCC3)c2)cnc1N)c1c(Cl)ccc(F)c1Cl [Crizotinib] (partner 1 µM)
Outline: as §1

Bemcentinib + Alpelisib = compound: Nc1nc(Nc2ccc3c(c2)CC[C@@H](N2CCCC2)CC3)nn1-c1cc2c(nn1)-c1ccccc1CCC2 [Bemcentinib] + Cc1nc(NC(=O)N2CCC[C@H]2C(N)=O)sc1-c1ccnc(C(C)(C)C(F)(F)F)c1 [Alpelisib] (partner 2 µM)
Outline: as §1

| Cell Line | relative viability (Axitinib + Alpelisib; first compound 0.005 µM) | relative viability (Axitinib + Alpelisib; first compound 0.01581 µM) | relative viability (Axitinib + Alpelisib; first compound 0.05 µM) | relative viability (Axitinib + Alpelisib; first compound 0.1581 µM) | relative viability (Axitinib + Alpelisib; first compound 0.5 µM) | relative viability ([1]; first compound 1 µM) | relative viability ([1]; first compound 3.162 µM) | relative viability ([1]; first compound 10 µM) | relative viability ([1]; first compound 31.62 µM) | relative viability ([1]; first compound 100 µM) | relative viability (Axitinib + Crizotinib; first compound 0.005 µM) | relative viability (Axitinib + Crizotinib; first compound 0.01581 µM) | relative viability (Axitinib + Crizotinib; first compound 0.05 µM) | relative viability (Axitinib + Crizotinib; first compound 0.1581 µM) | relative viability (Axitinib + Crizotinib; first compound 0.5 µM) | relative viability (Bemcentinib + Alpelisib; first compound 0.04 µM) | relative viability (Bemcentinib + Alpelisib; first compound 0.1265 µM) | relative viability (Bemcentinib + Alpelisib; first compound 0.4 µM) | relative viability (Bemcentinib + Alpelisib; first compound 1.265 µM) | relative viability (Bemcentinib + Alpelisib; first compound 4 µM) |
| --- | --- | --- | --- | --- | --- | --- | --- | --- | --- | --- | --- | --- | --- | --- | --- | --- | --- | --- | --- | --- |
| 201T | 1.01 | 0.959 | 0.947 | 0.987 | 0.972 | 1.04 | 0.83 | 0.792 | 0.81 | 0.79 | 1.06 | 1.05 | 1.05 | 1.07 | 1.02 | 1.01 | 0.987 | 1.03 | 1.08 | 1.04 |
| A549 | 0.79 | 0.741 | 0.775 | 0.753 | 0.874 | 0.895 | 0.777 | 0.644 | 0.698 | 0.799 | 0.763 | 0.734 | 0.776 | 0.49 | 0.744 | 0.834 | 0.892 | 0.754 | 0.988 | 0.875 |
| A-427 | 1.05 | 1.1 | 1.08 | 1.05 | 1.09 | 0.756 | 1.04 | 1.03 | 0.836 | 1 | 1 | 0.958 | 0.82 | 0.898 | 0.901 |  | 1.05 | 1.18 | 1.04 | 1.15 |
| ABC-1 | 1.16 | 1.06 | 0.945 | 1.07 | 1.54 | 0.945 | 0.983 | 0.732 | 0.682 | 0.661 | 1.21 | 1.28 | 1.2 | 1.13 | 1.28 | 1.22 | 1.07 | 1.08 | 0.997 | 1.07 |
| BEN | 0.993 | 1.04 | 0.928 | 1.04 | 0.908 | 1.01 | 1.19 | 1.14 | 0.965 | 1.22 | 0.897 | 1.04 | 0.788 | 0.807 | 0.925 | 0.984 | 1.09 | 1.11 | 1.12 | 1.02 |
| CAL-12T | 1.35 | 1.38 | 1.01 | 1.26 | 1.32 |  | 1.04 | 0.971 | 0.736 | 1.13 | 0.675 | 0.75 | 0.529 | 0.834 | 0.537 | 1.19 | 1.51 | 1.37 | 1.31 | 1.16 |
| COR-L23 | 0.77 | 0.857 | 0.78 | 0.83 | 1.06 | 0.857 | 0.849 | 0.931 |  | 0.663 | 0.696 | 0.564 | 0.596 | 0.623 | 0.778 | 0.874 | 0.778 | 0.965 | 0.9 | 0.904 |
| COR-L 105 | 1.08 | 1.2 | 1.02 | 0.932 | 1.18 | 0.948 | 0.909 | 0.902 | 0.683 | 0.768 | 0.841 | 0.965 | 0.86 | 0.776 | 0.968 | 1.05 | 0.949 | 1.03 | 0.931 | 0.895 |
| Calu-6 | 0.847 | 0.997 | 1.02 | 1.01 | 1.18 | 0.884 | 0.918 | 0.961 | 0.622 | 0.857 | 0.82 | 0.795 | 0.783 | 0.865 | 0.961 | 0.928 | 1.04 | 1.01 | 1.04 | 1.07 |
| ChaGo-K-1 |  |  |  |  |  |  |  |  |  |  | 1.1 | 1.17 | 1.13 | 1.05 | 1.15 |  |  |  |  |  |
| EBC-1 | 0.904 | 0.863 | 0.806 | 0.738 | 1.07 | 0.821 | 0.834 | 0.683 | 0.558 | 0.602 | 0.22 | 0.213 | 0.192 | 0.202 | 0.195 | 0.843 | 0.863 | 0.825 | 0.849 | 0.76 |
| EKVX | 1.06 | 0.82 | 0.838 | 0.87 | 1 | 0.918 | 0.743 | 0.567 | 0.583 | 0.548 | 1.03 | 0.896 | 0.785 | 0.904 | 0.958 | 0.913 | 1.01 | 0.929 | 0.973 | 0.972 |
| EMC-BAC-2 | 0.788 | 0.702 | 0.742 | 0.749 | 0.808 | 0.719 | 0.776 | 0.738 | 0.56 | 0.822 | 0.819 | 0.859 | 0.766 | 0.754 | 0.719 | 0.833 | 0.756 | 0.817 | 0.788 | 0.803 |
| EPLC-272H | 1.11 | 0.868 | 0.949 | 0.884 | 0.915 |  | 0.965 | 0.914 | 0.934 | 1.02 | 0.893 | 0.989 | 0.76 | 0.986 | 0.937 |  | 0.991 | 0.951 | 0.977 | 1.07 |
| H3255 | 0.648 | 0.611 | 0.632 | 0.724 | 0.702 | 0.587 | 0.739 | 0.692 | 0.403 | 0.593 | 0.975 | 0.79 | 0.764 | 0.77 | 1 | 0.63 | 0.71 | 0.713 | 0.61 | 0.703 |
| HARA | 0.877 | 0.909 | 0.975 | 0.824 | 1.02 | 0.757 | 0.794 | 0.856 | 0.638 | 0.519 | 1.07 | 1.07 | 1.1 | 0.978 | 1.14 | 0.759 | 0.918 | 0.822 | 0.866 | 0.936 |
| HCC-15 | 0.933 | 0.899 | 0.838 | 0.847 | 0.866 | 0.948 | 0.902 | 0.833 | 0.659 | 0.839 | 0.907 | 0.84 | 0.793 | 0.696 | 0.825 | 0.886 | 0.945 | 0.97 | 0.92 | 0.889 |
